For 16 compounds, T/C results are on record in PubChem BioAssay AID256 (DTP/NCI, 2004).

Inconclusive results and toxic doses are left out.

This assay relates to CD2F1 mice, L1210 leukemia ip, survival T/C. In words: NCI In Vivo Anticancer Drug Screen. Data for tumor model L1210 Leukemia (intraperitoneal) in CD2F1 (CDF1) mice. The following applies: endpoint: mean survival time, higher = longer survival. In short, it runs like this:
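Compound-dosed mice with transplantable tumor versus matched vehicle controls; endpoint ratio T/C reported.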

[1] abbreviates: dose: 100.0 mg/kg/injection, schedule: Q01DX009 (ip), vehicle: saline with Tween-80.
The mark [2] stands for this setting: dose: 100.0 mg/kg/injection, schedule: Q04DX003 (ip), vehicle: saline with Tween-80.
The mark [3] stands for this setting: dose: 200.0 mg/kg/injection, schedule: Q01DX009 (ip), vehicle: saline with Tween-80.
The mark [4] stands for this setting: dose: 200.0 mg/kg/injection, schedule: Q04DX003 (ip), vehicle: saline with Tween-80.
The mark [5] stands for this setting: dose: 400.0 mg/kg/injection, schedule: Q01DX009 (ip), vehicle: saline with Tween-80.
[6] abbreviates: dose: 400.0 mg/kg/injection, schedule: Q04DX003 (ip), vehicle: saline with Tween-80.
The mark [7] stands for this setting: dose: 12.5 mg/kg/injection, schedule: Q01DX005 (ip), vehicle: distilled water + Tween-80.
Where [8] appears, read: dose: 25.0 mg/kg/injection, schedule: Q01DX005 (ip), vehicle: distilled water + Tween-80.
[9] abbreviates: dose: 50.0 mg/kg/injection, schedule: Q01DX005 (ip), vehicle: distilled water + Tween-80.
[10] abbreviates: dose: 50.0 mg/kg/injection, schedule: Q01DX009 (ip), vehicle: saline with Tween-80.
Where [11] appears, read: dose: 100.0 mg/kg/injection, schedule: Q04DX003 (ip), vehicle: saline.
Setting [12] is: dose: 12.5 mg/kg/injection, schedule: Q01DX009 (ip), vehicle: other.
The mark [13] stands for this setting: dose: 25.0 mg/kg/injection, schedule: Q01DX009 (ip), vehicle: other.
The mark [14] stands for this setting: dose: 50.0 mg/kg/injection, schedule: Q01DX009 (ip), vehicle: other.
The mark [15] stands for this setting: dose: 100.0 mg/kg/injection, schedule: Q01DX009 (ip), vehicle: other.
The mark [16] stands for this setting: dose: 200.0 mg/kg/injection, schedule: Q01DX009 (ip), vehicle: other.
The mark [17] stands for this setting: dose: 100.0 mg/kg/injection, schedule: Q01DX001 (ip), vehicle: saline.
Where [18] appears, read: dose: 200.0 mg/kg/injection, schedule: Q01DX001 (ip), vehicle: saline.
Setting [19] is: dose: 400.0 mg/kg/injection, schedule: Q01DX001 (ip), vehicle: saline.
Setting [20] is: dose: 100.0 mg/kg/injection, schedule: Q01DX001 (ip), vehicle: saline with Tween-80.

For `O=c1[nH]cc(N(CCCl)CCCl)c(=O)[nH]1`, the T/C reads like this: (dose: 0.05 mg/kg/injection, schedule: Q01DX009 (ip), vehicle: saline) 101 % of control; (dose: 0.08 mg/kg/injection, schedule: Q01DX009 (ip), vehicle: saline) 106 % of control; (dose: 0.14 mg/kg/injection, schedule: Q01DX009 (ip), vehicle: saline) 109 % of control; (dose: 0.23 mg/kg/injection, schedule: Q01DX009 (ip), vehicle: saline) 112 % of control; (dose: 0.23 mg/kg/injection, schedule: Q04DX003 (ip), vehicle: saline) 107 % of control; (dose: 0.39 mg/kg/injection, schedule: Q04DX003 (ip), vehicle: saline) 109 % of control. The T/C is, setting by setting: (dose: 0.65 mg/kg/injection, schedule: Q01DX001 (ip), vehicle: saline) 115 % of control; (dose: 0.65 mg/kg/injection, schedule: Q04DX003 (ip), vehicle: saline) 113 % of control; (dose: 1.1 mg/kg/injection, schedule: Q01DX009 (ip), vehicle: saline) 167 % of control; (dose: 1.1 mg/kg/injection, schedule: Q04DX003 (ip), vehicle: saline) 151 % of control; (dose: 1.8 mg/kg/injection, schedule: Q01DX009 (ip), vehicle: saline) 115 % of control; (dose: 1.8 mg/kg/injection, schedule: Q04DX003 (ip), vehicle: saline) 182 % of control. The T/C was 163 % of control (dose: 3.0 mg/kg/injection, schedule: Q01DX001 (ip), vehicle: saline); 221 % of control (dose: 5.0 mg/kg/injection, schedule: Q01DX001 (ip), vehicle: saline); 91 % of control (dose: 5.0 mg/kg/injection, schedule: Q04DX003 (ip), vehicle: saline); 110 % of control (dose: 8.4 mg/kg/injection, schedule: Q01DX001 (ip), vehicle: saline).

For the compound `O=C(O)CCCSc1nc2ccccc2s1`, the T/C under setting [1] is 98 % of control; the T/C under setting [2] is 95 % of control; the T/C under setting [3] is 97 % of control; the T/C under setting [4] is 98 % of control; the T/C under setting [5] was 105 % of control; the T/C under setting [6] is 98 % of control.

Turning to `Nc1ccn(C2CC3[O][Sn]([c]4ccccc4)([c]4ccccc4)[O]CC3O2)c(=O)n1` (configuration not stated), the T/C is, setting by setting: (dose: 6.25 mg/kg/injection, schedule: Q01DX005 (ip), vehicle: distilled water + Tween-80) 103 % of control; under setting [7], 93 % of control; under setting [8], 93 % of control; under setting [9], 88 % of control.

In the case of `CCCCOc1ccc(NC(=O)CCl)cc1`, the T/C (dose: 25.0 mg/kg/injection, schedule: Q01DX009 (ip), vehicle: saline with Tween-80) is 96 % of control; the T/C (dose: 25.0 mg/kg/injection, schedule: Q04DX003 (ip), vehicle: saline) was 95 % of control; the T/C under setting [10] was 96 % of control; the T/C (dose: 50.0 mg/kg/injection, schedule: Q04DX003 (ip), vehicle: saline) was 101 % of control; the T/C under setting [11] is 94 % of control.

As to `C=CCCCCCCCCC(=O)NCC(C)C`, the T/C was 104 % of control under setting [1]; 91 % of control under setting [2]; 104 % of control under setting [3]; 102 % of control under setting [4]; 98 % of control under setting [5]; 100 % of control under setting [6].

With `CCCCCc1cccc(CC(=O)OCC)n1`, the T/C reads like this: under setting [11], 89 % of control; (dose: 200.0 mg/kg/injection, schedule: Q04DX003 (ip), vehicle: saline) 94 % of control; (dose: 400.0 mg/kg/injection, schedule: Q04DX003 (ip), vehicle: saline) 94 % of control.

Turning to `CC1OC(n2ncc(=O)[nH]c2=O)C(O)C(O)C1O` (configuration not stated), the T/C by setting is: under setting [7], 105 % of control; under setting [8], 100 % of control; under setting [9], 103 % of control; (dose: 100.0 mg/kg/injection, schedule: Q01DX005 (ip), vehicle: distilled water + Tween-80) 103 % of control; (dose: 200.0 mg/kg/injection, schedule: Q01DX005 (ip), vehicle: distilled water + Tween-80) 107 % of control.

On to `COc1cccc(NC(=O)NC2C(OC(C)=O)OC(COC(C)=O)C(OC(C)=O)C2OC(C)=O)c1` (configuration not stated), for which the T/C is 98 % of control under setting [12]; 98 % of control under setting [13]; 90 % of control under setting [14]; 90 % of control under setting [15]; 96 % of control under setting [16].

Take `O=c1[nH]c(=O)n(C(c2ccccc2)(c2ccccc2)c2ccccc2)cc1N(CCO)CCO`: the T/C is 91 % of control (dose: 50.0 mg/kg/injection, schedule: Q01DX001 (ip), vehicle: saline); 100 % of control under setting [17]; 87 % of control under setting [18]; 91 % of control under setting [19].

As to `N=C(N)N`, the T/C is 96 % of control under setting [10]; 98 % of control under setting [1]; 96 % of control under setting [2]; 96 % of control under setting [3]; 94 % of control under setting [4].

For the compound `CC(=O)OCC1OC(OC(C)=O)C(NC(=O)NS(=O)(=O)c2ccc(C)cc2)C(OC(C)=O)C1OC(C)=O` (configuration not stated), the T/C is 105 % of control under setting [12]; 98 % of control under setting [13]; 93 % of control under setting [14]; 94 % of control under setting [15]; 94 % of control under setting [16].

As for `CC1(C)CCC2(C)CC(C(=O)O)C(=O)C=C2C1` (configuration not stated), the T/C runs as follows: under setting [20], 100 % of control; (dose: 200.0 mg/kg/injection, schedule: Q01DX001 (ip), vehicle: saline with Tween-80) 92 % of control; (dose: 400.0 mg/kg/injection, schedule: Q01DX001 (ip), vehicle: saline with Tween-80) 96 % of control.

For `CC(C)CCCN`, the T/C was 100 % of control under setting [17], 97 % of control under setting [18] and 97 % of control under setting [19].

Consider `NC(=O)c1[nH]cnc1/N=N/N(CCCl)Cc1ccccc1`, for which the T/C reads like this: (dose: 66.0 mg/kg/injection, schedule: Q01DX009 (ip), vehicle: Klucel (hydroxypropylcellulose) (HPC)) 180 % of control; (dose: 100.0 mg/kg/injection, schedule: Q01DX009 (ip), vehicle: Klucel (hydroxypropylcellulose) (HPC)) 264 % of control; (dose: 150.0 mg/kg/injection, schedule: Q01DX009 (ip), vehicle: Klucel (hydroxypropylcellulose) (HPC)) 264 % of control; (dose: 200.0 mg/kg/injection, schedule: Q04DX003 (ip), vehicle: Klucel (hydroxypropylcellulose) (HPC)) 227 % of control; (dose: 400.0 mg/kg/injection, schedule: Q04DX003 (ip), vehicle: Klucel (hydroxypropylcellulose) (HPC)) 268 % of control.

Take `c1ccc2c(c1)Sc1ccccc1N2CCCNC1=NCCO1`: the T/C by setting is: (dose: 25.0 mg/kg/injection, schedule: Q04DX002 (ip), vehicle: saline with Tween-80) 97 % of control; (dose: 50.0 mg/kg/injection, schedule: Q04DX002 (ip), vehicle: saline with Tween-80) 94 % of control; under setting [20], 89 % of control; (dose: 100.0 mg/kg/injection, schedule: Q04DX002 (ip), vehicle: saline with Tween-80) 94 % of control.

`CN(CC(=O)O)C(=N)N`: the T/C was 96 % of control (dose: 250.0 mg/kg/injection, schedule: Q01DX Z (ip), vehicle: saline); 96 % of control (dose: 500.0 mg/kg/injection, schedule: Q01DX Z (ip), vehicle: saline); 100 % of control (dose: 1000.0 mg/kg/injection, schedule: Q01DX Z (ip), vehicle: saline).
